# Assay results: ChEMBL document CHEMBL5543097, “Synthesis and structure-activity relationships of novel 14-membered 2-fluoro ketolides with structural modification at the C11 position” (Eur J Med Chem, 2024)
# Activity calls are given as the source filed them. No cut-off for these calls is given here.
# What was measured:
# Streptococcus pneumoniae [1] = test: Antibacterial activity against erythromycin-resistant Streptococcus pneumoniae SPN19-8 assessed as inhibition of visible bacterial growth incubated for 18 hrs by broth microdilution method; assay type: functional
# Escherichia coli = test: Antibacterial activity against Escherichia coli ATCC 35218 assessed as inhibition of visible bacterial growth; assay type: functional, organism-based
# Streptococcus pneumoniae [2] = test: Antibacterial activity against erythromycin-resistant Streptococcus pneumoniae SPN19-14 assessed as inhibition of visible bacterial growth incubated for 18 hrs by broth microdilution method; assay type: functional
# [3] = tested on: Staphylococcus epidermidis; test: Antibacterial activity against erythromycin-resistant Staphylococcus epidermidis 19-9 assessed as inhibition of visible bacterial growth incubated for 18 hrs by broth microdilution method; assay type: functional
# Streptococcus agalactiae [4] = test: Antibacterial activity against erythromycin-resistant Streptococcus agalactiae 19-8 assessed as inhibition of visible bacterial growth incubated for 18 hrs by broth microdilution method; assay type: functional
# [5] = Cytotoxicity against mouse AML12 cells assessed as reduction in cell viability incubated for 48 hrs by MTT assay; assay type: toxicity, cell-based
# [6] = tested on: Staphylococcus epidermidis; test: Antibacterial activity against erythromycin-resistant Staphylococcus epidermidis 19-5 assessed as inhibition of visible bacterial growth incubated for 18 hrs by broth microdilution method; assay type: functional
# Moraxella catarrhalis [7] = test: Antibacterial activity against Moraxella catarrhalis BCA 19-5 assessed as inhibition of bacterial growth incubated for 24 hrs by CLSI based broth microdilution method; assay type: functional; settings: Moraxella catarrhalis, BCA 19-5, 24 h, read-out: MIC
# [8] = tested on: Staphylococcus epidermidis; test: Antibacterial activity against erythromycin-resistant Staphylococcus epidermidis 19-8 assessed as inhibition of visible bacterial growth incubated for 18 hrs by broth microdilution method; assay type: functional
# [9] = tested on: Staphylococcus epidermidis; test: Antibacterial activity against erythromycin-resistant Staphylococcus epidermidis 19-11 assessed as inhibition of visible bacterial growth incubated for 18 hrs by broth microdilution method; assay type: functional
# Streptococcus agalactiae [10] = test: Antibacterial activity against erythromycin-resistant Streptococcus agalactiae 19-9 assessed as inhibition of visible bacterial growth incubated for 18 hrs by broth microdilution method; assay type: functional
# [11] = tested on: Staphylococcus epidermidis; test: Antibacterial activity against erythromycin-resistant Staphylococcus epidermidis 19-4 assessed as inhibition of visible bacterial growth incubated for 18 hrs by broth microdilution method; assay type: functional
# Streptococcus pyogenes = test: Antibacterial activity against erythromycin-resistant Streptococcus pyogenes ATCC 19615 assessed as inhibition of visible bacterial growth incubated for 18 hrs by broth microdilution method; assay type: functional
# [12] = tested on: Staphylococcus epidermidis; test: Antibacterial activity against erythromycin-resistant Staphylococcus epidermidis 19-6 assessed as inhibition of visible bacterial growth incubated for 18 hrs by broth microdilution method; assay type: functional
# Moraxella catarrhalis [13] = test: Antibacterial activity against Moraxella catarrhalis BCA 19-6 assessed as inhibition of bacterial growth incubated for 24 hrs by CLSI based broth microdilution method; assay type: functional; settings: Moraxella catarrhalis, BCA 19-6, 24 h, read-out: MIC
# Haemophilus influenzae [14] = test: Antibacterial activity against Haemophilus influenzae HIN 19-15 assessed as inhibition of bacterial growth incubated for 20 to 24 hrs by CLSI based broth microdilution method; assay type: functional; settings: time 20-24 hrs
# Streptococcus pneumoniae [15] = test: Antibacterial activity against erythromycin-resistant Streptococcus pneumoniae SPN19-13 assessed as inhibition of visible bacterial growth incubated for 18 hrs by broth microdilution method; assay type: functional
# Moraxella catarrhalis [16] = test: Antibacterial activity against Moraxella catarrhalis BCA 19-31 assessed as inhibition of bacterial growth incubated for 24 hrs by CLSI based broth microdilution method; assay type: functional; settings: BCA 19-31, 24 h
# Haemophilus influenzae [17] = test: Antibacterial activity against Haemophilus influenzae HIN 19-18 assessed as inhibition of bacterial growth incubated for 20 to 24 hrs by CLSI based broth microdilution method; assay type: functional; settings: HIN 19-18, time 20-24 hrs
# [18] = tested on: Staphylococcus epidermidis; test: Potency index, ratio of telithromycin MIC to test compound MIC for antibacterial activity against erythromycin-resistant Staphylococcus epidermidis 19-9 assessed as inhibition of visible bacterial growth incubated for 18 hrs by broth microdilution method; assay type: functional
# [19] = tested on: Staphylococcus epidermidis; test: Potency index, ratio of telithromycin MIC to test compound MIC for antibacterial activity against erythromycin-resistant Staphylococcus epidermidis 19-11 assessed as inhibition of visible bacterial growth incubated for 18 hrs by broth microdilution method; assay type: functional
# [20] = Metabolic stability in human liver microsome assessed as parent compound remaining in absence of NADPH measured at 60 mins by LC-MS/MS analysis; assay type: ADME; settings: liver microsomes, read-out: Stability
# [21] = Metabolic stability in human liver microsome assessed as intrinsic clearance measured at 60 mins by LC-MS/MS analysis; assay type: ADME; settings: liver microsomes, read-out: CLH
# Streptococcus pneumoniae [22] = test: Potency index, ratio of telithromycin MIC to test compound MIC for antibacterial activity against Streptococcus pneumoniae SPN19-13 assessed as inhibition of visible bacterial growth incubated for 18 hrs by broth microdilution method; assay type: functional
# [23] = Metabolic stability in human liver microsome assessed as half life measured at 60 mins by LC-MS/MS analysis; assay type: ADME; settings: liver microsomes
# Haemophilus influenzae [24] = test: Antibacterial activity against Haemophilus influenzae HIN 20-18 assessed as inhibition of bacterial growth incubated for 20 to 24 hrs by CLSI based broth microdilution method; assay type: functional; settings: time 20-24 hrs
# [25] = tested on: Staphylococcus epidermidis; test: Potency index, ratio of telithromycin MIC to test compound MIC for antibacterial activity against erythromycin-resistant Staphylococcus epidermidis 19-4 assessed as inhibition of visible bacterial growth incubated for 18 hrs by broth microdilution method; assay type: functional
# [26] = tested on: Staphylococcus epidermidis; test: Potency index, ratio of telithromycin MIC to test compound MIC for antibacterial activity against erythromycin-resistant Staphylococcus epidermidis 19-6 assessed as inhibition of visible bacterial growth incubated for 18 hrs by broth microdilution method; assay type: functional
# [27] = tested on: Staphylococcus epidermidis; test: Potency index, ratio of telithromycin MIC to test compound MIC for antibacterial activity against erythromycin-resistant Staphylococcus epidermidis 19-8 assessed as inhibition of visible bacterial growth incubated for 18 hrs by broth microdilution method; assay type: functional
# Streptococcus pneumoniae [28] = test: Potency index, ratio of telithromycin MIC to test compound MIC for antibacterial activity against Streptococcus pneumoniae SPN19-8 assessed as inhibition of visible bacterial growth incubated for 18 hrs by broth microdilution method; assay type: functional
# [29] = Metabolic stability in human liver microsome assessed as parent compound remaining in presence of NADPH measured at 60 mins by LC-MS/MS analysis; assay type: ADME; settings: liver microsomes, read-out: Stability
# Streptococcus pneumoniae [30] = test: Potency index, ratio of telithromycin MIC to test compound MIC for antibacterial activity against Streptococcus pneumoniae SPN19-14 assessed as inhibition of visible bacterial growth incubated for 18 hrs by broth microdilution method; assay type: functional
# [31] = tested on: Staphylococcus epidermidis; test: Potency index, ratio of telithromycin MIC to test compound MIC for antibacterial activity against erythromycin-resistant Staphylococcus epidermidis 19-5 assessed as inhibition of visible bacterial growth incubated for 18 hrs by broth microdilution method; assay type: functional
# Staphylococcus aureus = test: Antibacterial activity against Staphylococcus aureus ATCC 700699 assessed as inhibition of visible bacterial growth; assay type: functional
smiles,measurement,setting,value
CC[C@H]1OC(=O)[C@@](C)(F)C(=O)[C@H](C)[C@@H](O[C@@H]2O[C@H](C)C[C@H](N(C)C)[C@H]2O)[C@](C)(OC)C[C@@H](C)C(=O)[C@H](C)[C@H]2N(CCCOC(=O)Nc3ccccc3[N+](=O)[O-])C(=O)O[C@]12C,MIC,Streptococcus pneumoniae [1],1 µg/mL
same,Activity,Escherichia coli,Active
same,MIC,Streptococcus pneumoniae [2],0.25 µg/mL
same,MIC,[3],0.25 µg/mL
same,MIC,Streptococcus agalactiae [4],< 0.03 µg/mL
same,CC50 at 48 h,[5],27.4 µM
same,MIC,[6],0.125 µg/mL
same,MIC,Moraxella catarrhalis [7],0.5 µg/mL
same,MIC,[8],0.125 µg/mL
same,MIC,[9],0.125 µg/mL
same,MIC,Streptococcus agalactiae [10],4 µg/mL
same,MIC,[11],0.125 µg/mL
same,MIC,Streptococcus pyogenes,< 0.03 µg/mL
same,MIC,[12],0.125 µg/mL
same,MIC,Moraxella catarrhalis [13],0.5 µg/mL
same,MIC,Haemophilus influenzae [14],8 µg/mL
same,MIC,Streptococcus pneumoniae [15],0.25 µg/mL
same,MIC,Moraxella catarrhalis [16],0.125 µg/mL
same,MIC,Haemophilus influenzae [17],8 µg/mL
CC[C@H]1OC(=O)[C@@](C)(F)C(=O)[C@H](C)[C@@H](O[C@@H]2O[C@H](C)C[C@H](N(C)C)[C@H]2O)[C@](C)(OC)C[C@@H](C)C(=O)[C@H](C)[C@H]2N(CCCOC(=O)Nc3ccc4c(c3)CCO4)C(=O)O[C@]12C,MIC,Streptococcus pneumoniae [1],0.06 µg/mL
same,Ratio,[18],4
same,MIC,Streptococcus pneumoniae [2],0.06 µg/mL
same,MIC,[3],0.06 µg/mL
same,Ratio,[19],4
same,remaining at 1 h,[20],89.4%
same,microsomal CLint,[21],341 µL/min/mg
same,CC50 at 48 h,[5],> 100 µM
same,MIC,[6],< 0.03 µg/mL
same,MIC,Moraxella catarrhalis [7],0.06 µg/mL
same,Ratio,Streptococcus pneumoniae [22],<4
same,half-life,[23],2 min
same,MIC,Haemophilus influenzae [24],8 µg/mL
same,MIC,[8],0.03 µg/mL
same,MIC,[9],< 0.03 µg/mL
same,MIC,Streptococcus agalactiae [10],2 µg/mL
same,MIC,[11],0.03 µg/mL
same,Ratio,[25],4
same,Ratio,[26],4
same,Ratio,[27],4
same,MIC,Streptococcus pyogenes,< 0.03 µg/mL
same,MIC,[12],0.06 µg/mL
same,MIC,Moraxella catarrhalis [13],0.125 µg/mL
same,MIC,Haemophilus influenzae [14],8 µg/mL
same,Ratio,Streptococcus pneumoniae [28],<4
same,remaining at 1 h,[29],0.3%
same,Ratio,Streptococcus pneumoniae [30],<4
same,MIC,Streptococcus pneumoniae [15],0.6 µg/mL
same,MIC,Moraxella catarrhalis [16],0.06 µg/mL
same,MIC,Haemophilus influenzae [17],2 µg/mL
same,Ratio,[31],4
CC[C@H]1OC(=O)[C@H](C)C(=O)[C@H](C)[C@@H](O[C@@H]2O[C@H](C)C[C@H](N(C)C)[C@H]2O)[C@](C)(OC)C[C@@H](C)C(=O)[C@H](C)[C@H]2N(CCCCn3cnc(-c4cccnc4)c3)C(=O)O[C@]12C [TELITHROMYCIN],MIC,Streptococcus pneumoniae [1],0.5 µg/mL
same,MIC,Streptococcus pneumoniae [2],0.25 µg/mL
same,MIC,[3],0.5 µg/mL
same,MIC,Staphylococcus aureus,16 µg/mL
same,MIC,Streptococcus agalactiae [4],< 0.03 µg/mL
same,CC50 at 48 h,[5],> 100 µM
same,MIC,[6],0.25 µg/mL
same,MIC,Moraxella catarrhalis [7],0.25 µg/mL
same,MIC,[8],> 64 µg/mL
same,MIC,[9],0.25 µg/mL
same,MIC,Streptococcus agalactiae [10],0.125 µg/mL
same,MIC,[11],> 64 µg/mL
same,MIC,Streptococcus pyogenes,< 0.03 µg/mL
same,MIC,[12],64 µg/mL
same,MIC,Moraxella catarrhalis [13],0.25 µg/mL
same,MIC,Haemophilus influenzae [14],4 µg/mL
same,MIC,Streptococcus pneumoniae [15],0.25 µg/mL
same,MIC,Moraxella catarrhalis [16],0.25 µg/mL
same,MIC,Haemophilus influenzae [17],4 µg/mL
CC[C@H]1OC(=O)[C@@](C)(F)C(=O)[C@H](C)[C@@H](O[C@@H]2O[C@H](C)C[C@H](N(C)C)[C@H]2O)[C@](C)(OC)C[C@@H](C)C(=O)[C@H](C)[C@H]2N(CCCOC(=O)Nc3cccnc3)C(=O)O[C@]12C,MIC,Streptococcus pneumoniae [1],0.125 µg/mL
same,Activity,Escherichia coli,Active
same,MIC,Streptococcus pneumoniae [2],0.125 µg/mL
same,MIC,[3],0.5 µg/mL
same,MIC,Streptococcus agalactiae [4],< 0.03 µg/mL
same,CC50 at 48 h,[5],> 100 µM
same,MIC,[6],0.125 µg/mL
same,MIC,Moraxella catarrhalis [7],0.06 µg/mL
same,MIC,[8],0.125 µg/mL
same,MIC,[9],0.125 µg/mL
same,MIC,Streptococcus agalactiae [10],0.25 µg/mL
same,MIC,[11],0.25 µg/mL
same,MIC,Streptococcus pyogenes,< 0.03 µg/mL
same,MIC,[12],125 µg/mL
same,MIC,Moraxella catarrhalis [13],0.06 µg/mL
same,MIC,Haemophilus influenzae [14],4 µg/mL
same,MIC,Streptococcus pneumoniae [15],0.125 µg/mL
same,MIC,Moraxella catarrhalis [16],0.06 µg/mL
same,MIC,Haemophilus influenzae [17],4 µg/mL
